Measurements published in patent publication US20170342064A1, “COMPOUNDS FOR THE TREATMENT OF CANCER” (Bayer Pharma Aktiengesellschaft, priority 2014, published 2017).

How the values were obtained:
[1] = tested on: HeLa human cervical tumor cells; assay: Proliferation assay (crystal violet), HeLa cells; type: cell-based; details: 96 h, 4 days incubation, crystal violet staining, read-out: Inhibition of cell proliferation, cell Line: HeLa IC50
Description: Cultivated tumor cells (MCF7, hormone dependent human mammary carcinoma cells, ATCC HTB22; NCI-H460, human non-small cell lung carcinoma cells, ATCC HTB-177; DU 145, hormone-independent human prostate carcinoma cells, ATCC HTB-81; HeLa-MaTu, human cervical carcinoma cells, EPO-GmbH, Berlin; HeLa-MaTu-ADR, multidrug-resistant human cervical carcinoma cells, EPO-GmbH, Berlin; HeLa human cervical tumor cells, ATCC CCL-2; B16F10 mouse melanoma cells, ATCC CRL-6475) were plated at a density of 5000 cells/well (MCF7, DU145, HeLa-MaTu-ADR), 3000 cells/well (NCI-H460, HeLa-MaTu, HeLa), or 1000 cells/well (B16F10) in a 96-well multititer plate in 200 μl of their respective growth medium supplemented 10% fetal calf serum. After 24 hours, the cells of one plate (zero-point plate) were stained with crystal violet (see below), while the medium of the other plates was replaced by fresh culture medium (200 μl), to which the test substances were added in various concentrations (0 μM, as well as in the range of 0.01-30 μM; the final concentration of the solvent dimethyl sulfoxide was 0.5%). The cells were incubated for 4 days in the presence of test substances. Cell proliferation was determined by staining the cells with crystal violet: the cells were fixed by adding 20 μl/measuring point of an 11% glutaric aldehyde solution for 15 minutes at room temperature. After three washing cycles of the fixed cells with water, the plates were dried at room temperature. The cells were stained by adding 100 μl/measuring point of a 0.1% crystal violet solution (pH 3.0). After three washing cycles of the stained cells with water, the plates were dried at room temperature. The dye was dissolved by adding 100 μl/measuring point of a 10% acetic acid solution. The extinction was determined by photometry at a wavelength of 595 nm. The change of cell number, in percent, was calculated by normalization of the measured values to the extinction values of the zero-point plate (=0%) and the extinction of the untreated (0 μm) cells (=100%). The IC50 values were determined by means of a 4 parameter fit.
The reference examples described above are characterized by the following IC50 values, determined in a HeLa cell proliferation assay (as described above): […]

[2] = In vitro stability in rat plasma (HPLC detection); type: in vitro ADME, wistar rat; details: 37° C., HPLC peak area ratio
Description: (§1) 1 mg of test compound is dissolved in 1.25 ml dimethylsulfoxide. Then 1.25 ml water are added. 0.5 ml of this sample solution are mixed with 0.5 ml heparinized and 37° C. warm plasma (wistar rat plasma or human plasma). A first sample (10 μl) is immediately taken for HPLC analysis. In the period up to 4 h after the start of incubation further 10 μl aliquots are taken after 30, 60, 90, 120 and 240 minutes and the amount of the test compound is determined. Agilent 1100 with DAD (G1315A), binary pump (G1312A), autosampler (G1329A), column oven (G1316A), thermostat (G1330B); column: Kromasil 100 C18, 250 mm×4 mm, 5 μm; column temperature: 45° C.; eluent A: water+5 ml of perchloric acid/litre, eluent B: acetonitrile. 0 min 98% A, 2% B→0-3.0 min 85% A, 15% B→3.0-8.0 min 55% A, 45% B→8.0-16.0 min 55% A, 45% B→16.0-20.0 min 10% A, 90% B→20.0-21.0 10% A, 90% B→21.0-24.0 min 98% A, 2% B→24.0-25.0 min 98% A, 2% B; flow rate: 1.5 ml/min; UV detection: 222 nm.

[3] = Stability in buffer at pH 7.4; type: physicochemical; details: buffer pH 7.4, 37° C., HPLC peak area ratio
Description: 0.3 mg of the test compound are solved in 0.1 ml dimethylsulfoxide and 0.4 ml acetonitrile. For complete dissolution the HPLC vial with the sample solution is sonified for about 20 seconds. Then 1.0 ml of the buffer solution is added, and the sample is again treated in the ultrasonic bath. 90 g of sodium chloride, 13.61 g of potassium dihydrogen phosphate and 83.35 g of 1 M sodium hydroxide solution are made up to 1 litre with Millipore water and then diluted 1:10. 10 μl portions of the sample solution are analysed by HPLC to determine the amount of the test compound over a period of 24 hours at 37° C. The peak areas in percentage are used for quantification. Agilent 1100 with DAD (G1315B), binary pump (G1312A), autosampler (G1329A), column oven (G1316A), thermostat (G1330B); column: Kromasil 100 C18, 250 mm×4 mm, 5 μm; column temperature: 37° C.; eluent A: water+5 ml of perchloric acid/litre, eluent B: acetonitrile. 0 min 98% A, 2% B→0-3.0 min 85% A, 15% B→3.0-8.0 min 50% A, 50% B→8.0-16.0 min 50% A, 50% B→16.0-20.0 min 10% A, 90% B→20.0-21.0 10% A, 90% B→21.0-24.0 min 98% A, 2% B→24.0-25.0 min 98% A, 2% B; flow rate: 1.5 ml/min; UV detection: 210 nm. The ratio of the peak areas (F) at different time points in relation to the peak areas at the starting time are shown in Table 1 for representative examples: […]

[4] = In vitro stability in human plasma (HPLC detection); type: in vitro ADME; details: 37° C., HPLC peak area ratio
Description: as §1

Row | Compound | IC50 [1] [nM] | other results
1 | C[C@@H](C(=O)Nc1ccc(-c2ccn3nc(N(C(=O)OCOC(=O)[C@@H](N)C(C)(C)C)c4ccc(C(=O)N5CC(F)C5)cc4OCC(F)(F)F)nc3c2)cc1)c1ccc(F)cc1.Cl [Example 1.1, [({4-[(3-fluoroazetidin-1-yl)carbonyl]-2-(2,2,2-trifluoroethoxy)phenyl}[7-(4-{[(2R)-2-(4-fluorophenyl)propanoyl]amino}phenyl)[1,2,4]triazolo[1,5-a]pyridin-2-yl]carbamoyl)oxy]methyl 3-methyl-L-valinate hydrochloride] |  | % Test Compound after 4 h [F(t = 24 h) × 100/F(t = 0 h)] [2]: 0.0%; % Test Compound after 24 h [F(t = 24 h) × 100/F(t = 0 h)] [3]: 0.0%; % Test Compound after 4 h [F(t = 24 h) × 100/F(t = 0 h)] [4]: 0.0%
2 | COc1cc(S(C)(=O)=O)ccc1Nc1nc2cc(-c3ccc(NC(=O)[C@H](C)c4ccc(F)cc4)cc3)ccn2n1 [01.01, (2R)-2-(4-fluorophenyl)-N-[4-(2-{[2-methoxy-4-(methylsulfonyl)phenyl]amino}[1,2,4]triazolo[1,5-a]pyridin-7-yl)phenyl]propanamide] | ≤ 200 | 
3 | COc1cc(C(=O)N2CC(F)C2)ccc1Nc1nc2cc(-c3ccc(NC(=O)[C@H](C)c4ccc(F)cc4)cc3)ccn2n1 [Reference Example 01.02, (2R)—N-{4-[2-({4-[(3-fluoroazetidin-1-yl)carbonyl]-2-methoxyphenyl}amino)[1,2,4]triazolo[1,5-a]pyridin-7-yl]phenyl}-2-(4-fluorophenyl)propanamide] | ≤ 100 | 

Continued, in another order:

Row | IC50 [1] [nM] | Compound | other results
4 | ≤ 100 | C[C@@H](C(=O)Nc1ccc(-c2ccn3nc(Nc4ccc(S(C)(=O)=O)cc4OCC(F)(F)F)nc3c2)cc1)c1ccc(F)cc1 [Reference Example 01.05, (2R)-2-(4-fluorophenyl)-N-[4-(2-{[4-(methylsulfonyl)-2-(2,2,2-trifluoroethoxy)phenyl]amino}[1,2,4]triazolo[1,5-a]pyridin-7-yl)phenyl]propanamide] | 
5 | ≤ 100 | COc1cc(C(=O)N2CCC2)ccc1Nc1nc2cc(-c3ccc(NC(=O)[C@H](C)c4ccc(F)cc4)cc3)ccn2n1 [Reference Example 01.06, (2R)—N-[4-(2-{[4-(azetidin-1-ylcarbonyl)-2-methoxyphenyl]amino}[1,2,4]triazolo[1,5-a]pyridin-7-yl)phenyl]-2-(4-fluorophenyl)propanamide] | 
6 | ≤ 100 | C[C@@H](C(=O)Nc1ccc(-c2ccn3nc(Nc4ccc(C(=O)N5CC(F)C5)cc4OCC(F)(F)F)nc3c2)cc1)c1ccc(F)cc1 [Reference Example 01.03, (2R)—N-{4-[2-({4-[(3-fluoroazetidin-1-yl)carbonyl]-2-(2,2,2-trifluoroethoxy)phenyl}amino)[1,2,4]triazolo[1,5-a]pyridin-7-yl]phenyl}-2-(4-fluorophenyl)propanamide] | 
